Read-outs that look alike come from different tables or passages of the source.
What was measured:
Format in all cases: cell-based
[1] = tested on: renal carcinoma cells (786-O); assay: In vitro potency (CellTiter-Glo, 96 h), 786-O; settings: Homo sapiens, 786-0, 96 h
Description: (§1) In vitro potency was assessed on multiple cancer cell lines. All cell lines were authenticated by STR profiling at IDEXX Bioresearch and cultured for no more than 2 months after resuscitation. Cells cultured in log-phase growth were seeded for 24 hours in 96-well plates containing […] RPMI 1640 supplemented with 20% FBS. Serial dilutions of antibody-drug conjugates in cell culture media were prepared at 4× working concentrations, and 50 μL of each dilution was added to the 96-well plates. Following addition of test articles, cells were incubated with test articles for 4 days at 37 0° C. After 96 hours, growth inhibition was assessed by CellTiterGlo® (Promega, Madison, WI) and luminescence was measured on a plate reader.
(§2) In Table 7, IC50 values for ADCs are given in ng/mL. Cell viability was determined by CellTiter-Glo staining after 96 h exposure to ADC. ND=Not Determined. Ag2 is an antibody targeting a ubiquitous and readily internalizable antigen. The cancer cell lines tested are renal carcinoma cells (786-0), melanoma cells (A2058), pancreatic cancer cells (BxPC3), non-small-cell lung cancer cells (Calu1), anaplastic large cell lymphoma cells (DEL, DELBVR, Karpas299), Hodgkin's lymphoma cells (L540cy), (Ls174T), breast cancer cells (MDA-MB-231), acute myeloid leukemia cells (MOLM-13), and B-lymphocyte cancer cells (SU-DHL4).
as §1, with “FBS.” for “FBS. Serial dilutions of antibody-drug conjugates in cell culture media were prepared at 4× working concentrations, and 50 μL of each dilution was added to the 96-well plates.”
(§3) Cell viability was determined by CellTiter-Glo staining after 96 h exposure to the compound. ND=Not Determined. The cancer cell lines tested are renal carcinoma cells (786-0), melanoma cells (A2058), pancreatic cancer cells (BxPC3), non-small-cell lung cancer cells (Calu1), anaplastic large cell lymphoma cells (DEL, DELBVR, Karpas299), Hodgkin's lymphoma cells (L540cy), (Ls 174T), breast cancer cells (MDA-MB-231), acute myeloid leukemia cells (MOLM-13), B-lymphocyte cancer cells (SU-DHL4), multiple myeloma cells (MM.1R), (U266), and melanoma cells (SK-MEL-5).
as §1, with “37°” for “37 0°”
(§4) In the following Tables IC50 values for ADCs and CPT free drugs are given in ng/mL and nmol/L concentrations. Cell viability was determined by CellTiter-Glo staining after 96 h exposure to ADC or CPT free drug.
(§5) Cell viability was determined by CellTiter-Glo staining after 96 h exposure to ADC. ND=Not Determined.

melanoma cells (A2058) = assay: In vitro potency (CellTiter-Glo, 96 h), A2058; settings: Homo sapiens, A2058, 96 h, read-out: A2058 IC50
Description: as §1, §2
as §1, with “FBS.” for “FBS. Serial dilutions of antibody-drug conjugates in cell culture media were prepared at 4× working concentrations, and 50 μL of each dilution was added to the 96-well plates.”
as §3
as §1, with “37°” for “37 0°”
as §4, §5

[2] = tested on: pancreatic cancer cells (BxPC3); assay: In vitro potency (CellTiter-Glo, 96 h), BxPC3; settings: Homo sapiens, BXPC-3, 96 h
Description: as §1, §2
as §1, with “FBS.” for “FBS. Serial dilutions of antibody-drug conjugates in cell culture media were prepared at 4× working concentrations, and 50 μL of each dilution was added to the 96-well plates.”
as §3
as §1, with “37°” for “37 0°”
as §4, §5

[3] = tested on: anaplastic large cell lymphoma cells (DEL); assay: In vitro potency (CellTiter-Glo, 96 h), DEL
Description: as §1, §2
as §1, with “FBS.” for “FBS. Serial dilutions of antibody-drug conjugates in cell culture media were prepared at 4× working concentrations, and 50 μL of each dilution was added to the 96-well plates.”
as §3
as §1, with “37°” for “37 0°”
as §4, §5

[4] = tested on: anaplastic large cell lymphoma cells (DELBVR); assay: In vitro potency (CellTiter-Glo, 96 h), DELBVR
Description: as §1, §2
as §1, with “FBS.” for “FBS. Serial dilutions of antibody-drug conjugates in cell culture media were prepared at 4× working concentrations, and 50 μL of each dilution was added to the 96-well plates.”
as §3
as §1, with “37°” for “37 0°”
as §4, §5

[5] = tested on: anaplastic large cell lymphoma cells (Karpas299); assay: In vitro potency (CellTiter-Glo, 96 h), Karpas299; settings: Homo sapiens, KARPAS-299, 96 h
Description: as §1, §2
as §1, with “FBS.” for “FBS. Serial dilutions of antibody-drug conjugates in cell culture media were prepared at 4× working concentrations, and 50 μL of each dilution was added to the 96-well plates.”
as §3
as §1, with “37°” for “37 0°”
as §4, §5

[6] = tested on: Hodgkin's lymphoma cells (L540cy); assay: In vitro potency (CellTiter-Glo, 96 h), L540cy
Description: as §1, §2
as §1, with “FBS.” for “FBS. Serial dilutions of antibody-drug conjugates in cell culture media were prepared at 4× working concentrations, and 50 μL of each dilution was added to the 96-well plates.”
as §3
as §1, with “37°” for “37 0°”
as §4, §5

Ls174T cells = assay: In vitro potency (CellTiter-Glo, 96 h), Ls174T; settings: Homo sapiens, LS174T, 96 h
Description: as §1, §2
as §1, with “FBS.” for “FBS. Serial dilutions of antibody-drug conjugates in cell culture media were prepared at 4× working concentrations, and 50 μL of each dilution was added to the 96-well plates.”
as §3
as §1, with “37°” for “37 0°”
as §4, §5

[7] = tested on: breast cancer cells (MDA-MB-231); assay: In vitro potency (CellTiter-Glo, 96 h), MDA-MB-231; settings: Homo sapiens, MDA-MB-231, 96 h
Description: as §1, §2
as §1, with “FBS.” for “FBS. Serial dilutions of antibody-drug conjugates in cell culture media were prepared at 4× working concentrations, and 50 μL of each dilution was added to the 96-well plates.”
as §3
as §1, with “37°” for “37 0°”
as §4, §5

[8] = tested on: acute myeloid leukemia cells (MOLM-13); assay: In vitro potency (CellTiter-Glo, 96 h), MOLM-13; settings: Homo sapiens, MOLM-13, 96 h
Description: as §1, §2
as §1, with “FBS.” for “FBS. Serial dilutions of antibody-drug conjugates in cell culture media were prepared at 4× working concentrations, and 50 μL of each dilution was added to the 96-well plates.”
as §3
as §1, with “37°” for “37 0°”
as §4, §5

[9] = tested on: B-lymphocyte cancer cells (SU-DHL4); assay: In vitro potency (CellTiter-Glo, 96 h), SU-DHL-4; settings: Homo sapiens, SU-DHL-4, 96 h
Description: as §1, §2
as §1, with “FBS.” for “FBS. Serial dilutions of antibody-drug conjugates in cell culture media were prepared at 4× working concentrations, and 50 μL of each dilution was added to the 96-well plates.”
as §3
as §1, with “37°” for “37 0°”
as §4, §5

[10] = read-out: 786-O IC50, camptothecin free drug, 96 h
[11] = read-out: BxPC3 IC50, camptothecin free drug, 96 h
[12] = read-out: DEL IC50, camptothecin free drug, 96 h
[13] = read-out: DELBVR IC50, camptothecin free drug, 96 h
[14] = read-out: Karpas299 IC50, camptothecin free drug, 96 h
[15] = read-out: L540cy IC50, camptothecin free drug, 96 h
[16] = read-out: Ls174T IC50, camptothecin free drug, 96 h
[17] = read-out: MOLM-13 IC50, camptothecin free drug, 96 h
[18] = read-out: SU-DHL-4 IC50, camptothecin free drug, 96 h
[19] = read-out: 786-O IC50, Table 28, CPT free drugs, renal carcinoma cells 786-O, 96 h, CellTiter-Glo
[20] = read-out: BxPC3 IC50, Table 28, CPT free drugs, pancreatic cancer cells BxPC3, 96 h, CellTiter-Glo
[21] = read-out: DEL IC50, Table 28, CPT free drugs, anaplastic large cell lymphoma cells DEL, CellTiter-Glo
[22] = read-out: DELBVR IC50, Table 28, CPT free drugs, anaplastic large cell lymphoma cells DELBVR, CellTiter-Glo
[23] = read-out: Karpas299 IC50, Table 28, CPT free drugs, anaplastic large cell lymphoma cells Karpas299, 96 h, CellTiter-Glo
[24] = read-out: L540cy IC50, Table 28, CPT free drugs, Hodgkin's lymphoma cells L540cy, CellTiter-Glo
[25] = read-out: Ls174T IC50, Table 28, CPT free drugs, Ls174T cells, CellTiter-Glo
[26] = read-out: MDAMB231 IC50, Table 28, CPT free drugs, breast cancer cells MDA-MB-231, 96 h, CellTiter-Glo
[27] = read-out: MOLM-13 IC50, Table 28, CPT free drugs, acute myeloid leukemia cells MOLM-13, 96 h, CellTiter-Glo
[28] = read-out: SU-DHL-4 IC50, Table 28, CPT free drugs, B-lymphocyte cancer cells SU-DHL4, 96 h, CellTiter-Glo

Row | SMILES | IC50 [1, 10] [nM] | IC50 (melanoma cells (A2058)) [nM] | IC50 [2, 11] [nM] | IC50 [3, 12] [nM] | IC50 [4, 13] [nM] | IC50 [5, 14] [nM] | IC50 [6, 15] [nM] | IC50 (Ls174T cells; [16]) [nM] | IC50 [8, 17] [nM] | IC50 [9, 18] [nM] | IC50 [1, 19] [nM] | IC50 [2, 20] [nM] | IC50 [3, 21] [nM] | IC50 [4, 22] [nM] | IC50 [5, 23] [nM] | IC50 [6, 24] [nM] | IC50 (Ls174T cells; [25]) [nM] | IC50 [7, 26] [nM] | IC50 [8, 27] [nM] | IC50 [9, 28] [nM] | other results
1 | CC[C@@]1(O)C(=O)OCc2c1cc1n(c2=O)Cc2c-1nc1cc3c(cc1c2CNCCCN)OCO3 [Compound 7v] | 174 | 69 | 225 | 58 | 57 | 132 | 87 | 146 | > 1000 | 99 | – | – | – | – | – | – | – | – | – | – | IC50 ([7]; read-out: MDAMB231 IC50, camptothecin free drug, 96 h): 1000 nM
2 | CC[C@@]1(O)C(=O)OCc2c1cc1n(c2=O)Cc2c-1nc1cc3c(cc1c2CNC(C)=O)CCO3 [Compound 12] | – | – | – | – | – | – | – | – | – | – | 13 | 12 | 1 | 1 | 24 | 5 | 19 | 27 | 5 | 1 | –
3 | C=C(C)c1c(C)c(F)cc2nc3c(c(CN)c12)Cn1c-3cc2c(c1=O)COC(=O)[C@]2(O)CC [Compound 2al] | – | – | – | – | – | – | – | – | – | – | 4 | 7 | 1 | 1 | 4 | 2 | 11 | 9 | 2 | 1 | –
4 | CC[C@@]1(O)C(=O)OCc2c1cc1n(c2=O)Cc2c-1nc1cc3c(cc1c2CNCCN1CCN(C)CC1)OCO3 [Compound 7b] | 162 | 55 | 172 | 54 | 55 | 158 | 87 | 77 | 533 | 94 | – | – | – | – | – | – | – | – | – | – | –
5 | CC[C@@]1(O)C(=O)OCc2c1cc1n(c2=O)Cc2c-1nc1cc3c(cc1c2CNC1CCNCC1)OCO3 [Compound 8e] | – | – | – | – | – | – | – | – | – | – | – | – | – | – | – | – | – | – | – | – | IC50 ([1]; read-out: 786-O IC50, Table 29, CPT free drugs, renal carcinoma cells 786-O, 96 h, CellTiter-Glo): 104 nM; IC50 ([2]; read-out: BxPC3 IC50, Table 29, CPT free drugs, pancreatic cancer cells BxPC3, 96 h, CellTiter-Glo): 62 nM; IC50 ([3]; read-out: DEL IC50, Table 29, CPT free drugs, anaplastic large cell lymphoma cells DEL, CellTiter-Glo): 7 nM; IC50 ([4]; read-out: DELBVR IC50, Table 29, CPT free drugs, anaplastic large cell lymphoma cells DELBVR, CellTiter-Glo): 10 nM; IC50 ([5]; read-out: Karpas299 IC50, Table 29, CPT free drugs, anaplastic large cell lymphoma cells Karpas299, 96 h, CellTiter-Glo): 72 nM; IC50 ([6]; read-out: L540cy IC50, Table 29, CPT free drugs, Hodgkin's lymphoma cells L540cy, CellTiter-Glo): 36 nM; IC50 (Ls174T cells; read-out: Ls174T IC50, Table 29, CPT free drugs, Ls174T cells, CellTiter-Glo): 109 nM; IC50 ([7]; read-out: MDAMB231 IC50, Table 29, CPT free drugs, breast cancer cells MDA-MB-231, 96 h, CellTiter-Glo): 102 nM; IC50 ([8]; read-out: MOLM-13 IC50, Table 29, CPT free drugs, acute myeloid leukemia cells MOLM-13, 96 h, CellTiter-Glo): 89 nM; IC50 ([9]; read-out: SU-DHL-4 IC50, Table 29, CPT free drugs, B-lymphocyte cancer cells SU-DHL4, 96 h, CellTiter-Glo): 25 nM
